Laboratory results reported in the supplement of paper PMC10307832.

How the values were obtained:
Test in all cases: relative viability (nuclei count vs DMSO), 5 days (fraction); higher = more cells survive
Tipifarnib + Bortezomib = compound: Cn1cncc1[C@@](N)(c1ccc(Cl)cc1)c1ccc2c(c1)c(-c1cccc(Cl)c1)cc(=O)n2C [Tipifarnib] + CC(C)C[C@H](NC(=O)[C@H](Cc1ccccc1)NC(=O)c1cnccn1)B(O)O [Bortezomib] (partner 0.002 µM)
Outline: (§1)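 The day after seeding in 1536-well plates, lung cancer cell lines were treated by pin tool with a single drug, or with a fixed anchor-drug dose together with five library-drug doses (not always all listed) in √10 steps. After 5 days, a combined fix-and-stain solution (final 0.05% Triton X-100, 1% formaldehyde, 1 ug/ml Hoechst) was added. Nuclei counted on 4× images gave relative viability as treated counts over vehicle counts, reported as the median of duplicate plates.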

Tipifarnib + Trametinib = compound: Cn1cncc1[C@@](N)(c1ccc(Cl)cc1)c1ccc2c(c1)c(-c1cccc(Cl)c1)cc(=O)n2C [Tipifarnib] + CC(=O)Nc1cccc(-n2c(=O)n(C3CC3)c(=O)c3c(Nc4ccc(I)cc4F)n(C)c(=O)c(C)c32)c1 [Trametinib] (partner 0.02 µM)
Outline: as §1

Tipifarnib + Olaparib = compound: Cn1cncc1[C@@](N)(c1ccc(Cl)cc1)c1ccc2c(c1)c(-c1cccc(Cl)c1)cc(=O)n2C [Tipifarnib] + O=C(c1cc(Cc2n[nH]c(=O)c3ccccc23)ccc1F)N1CCN(C(=O)C2CC2)CC1 [Olaparib] (partner 8 µM)
Outline: as §1

Tipifarnib + Pictilisib = compound: Cn1cncc1[C@@](N)(c1ccc(Cl)cc1)c1ccc2c(c1)c(-c1cccc(Cl)c1)cc(=O)n2C [Tipifarnib] + CS(=O)(=O)N1CCN(Cc2cc3nc(-c4cccc5[nH]ncc45)nc(N4CCOCC4)c3s2)CC1 [Pictilisib] (partner 1 µM)
Outline: as §1

Row | Cell Line | relative viability (Tipifarnib + Bortezomib; first compound 0.01 µM) | relative viability (Tipifarnib + Bortezomib; first compound 0.03162 µM) | relative viability (Tipifarnib + Bortezomib; first compound 0.1 µM) | relative viability (Tipifarnib + Bortezomib; first compound 0.3162 µM) | relative viability (Tipifarnib + Bortezomib; first compound 1 µM) | relative viability (Tipifarnib + Trametinib; first compound 0.01 µM) | relative viability (Tipifarnib + Trametinib; first compound 0.03162 µM) | relative viability (Tipifarnib + Trametinib; first compound 0.1 µM) | relative viability (Tipifarnib + Trametinib; first compound 0.3162 µM) | relative viability (Tipifarnib + Trametinib; first compound 1 µM) | relative viability (Tipifarnib + Olaparib; first compound 0.01 µM) | relative viability (Tipifarnib + Olaparib; first compound 0.03162 µM) | relative viability (Tipifarnib + Olaparib; first compound 0.1 µM) | relative viability (Tipifarnib + Olaparib; first compound 0.3162 µM) | relative viability (Tipifarnib + Olaparib; first compound 1 µM) | relative viability (Tipifarnib + Pictilisib; first compound 0.01 µM) | relative viability (Tipifarnib + Pictilisib; first compound 0.03162 µM) | relative viability (Tipifarnib + Pictilisib; first compound 0.1 µM) | relative viability (Tipifarnib + Pictilisib; first compound 0.3162 µM) | relative viability (Tipifarnib + Pictilisib; first compound 1 µM)
1 | NCI-H727 | 0.893 | 0.802 | 0.856 | 0.656 | 0.607 | 0.425 | 0.395 | 0.379 | 0.384 | 0.404 | 0.702 | 0.685 | 0.866 | 0.802 | 0.901 | 0.625 | 0.438 | 0.484 | 0.389 | 0.444
2 | NCI-H838 | 0.713 | 0.733 | 0.589 | 0.439 | 0.41 | 0.47 | 0.483 | 0.434 | 0.431 | 0.374 | 0.741 | 0.675 | 0.683 | 0.626 | 0.617 | 0.404 | 0.368 | 0.324 | 0.3 | 0.279
3 | NCI-H1355 | 1.17 | 0.992 | 0.806 | 0.722 | 0.813 | 0.486 | 0.387 | 0.357 | 0.352 | 0.339 | 0.801 | 0.706 | 0.55 | 0.559 | 0.507 | 0.439 | 0.401 | 0.356 | 0.301 | 0.293
4 | NCI-H1437 | 0.54 | 0.554 | 0.403 | 0.41 | 0.306 | 0.591 | 0.596 | 0.619 | 0.406 | 0.446 | 0.656 | 0.638 | 0.643 | 0.585 | 0.608 | 0.457 | 0.466 | 0.45 | 0.343 | 0.212
5 | NCI-H1650 | 0.224 | 0.204 | 0.202 | 0.209 | 0.191 | 0.442 | 0.285 | 0.474 | 0.294 | 0.236 | 0.747 | 0.505 | 0.358 | 0.321 | 0.416 | 0.409 | 0.228 | 0.337 | 0.265 | 0.191
6 | NCI-H1651 | 0.94 | 0.916 | 1.04 | 0.842 | 0.78 | 0.827 | 0.754 | 0.781 | 0.832 | 0.802 | 0.213 | 0.194 | 0.236 | 0.22 | 0.222 | 0.632 | 0.566 | 0.562 | 0.512 | 0.319
7 | NCI-H1666 | 0.801 | 0.793 | 0.671 | 0.614 | 0.442 | 0.832 | 0.798 | 0.846 | 0.811 | 0.679 | 0.737 | 0.672 | 0.779 | 0.731 | 0.721 | 0.464 | 0.393 | 0.419 | 0.332 | 0.367
